How the values were obtained:
T lymphocytes = assay: Inhibition of proliferation of PHA-stimulated T lymphocytes (tritium thymidine incorporation); format: cell-based; settings: Homo sapiens, T-lymphocyte, 1 μg/ml Phytohemagglutinine, 48 hours, test compounds 0.1-250 μM, read-out: T cells IC50
Description: (§1) Peripheral blood mononuclear cells (PBMC) from healthy human volunteers were freshly isolated by density gradient centrifugation. T lymphocytes (T cells, Tc) were isolated from PBMC fractions via nylon wool adherence. Cells were cultured in standard cell culture media and stimulated by addition of 1 μg/ml Phytohemagglutinine for 48 hours in 96 well flat-bottom microtitre plates. Test compounds were added at concentration ranges from 0.1-250 μM over the total assay period.
DNA synthesis of proliferating T cells was determined by incorporation of radio labelled tritium thymidine and subsequent radio detection.
(§2) Data output was based on raw data and calculation of relative proliferation response in relation to PHA-activated T cells in the absence of test compound (100% control).
(§3) The […] value of proliferation suppression was assessed by graphical evaluation.

[1] = tested on: human peripheral blood mononuclear cells; assay: Inhibition of proliferation of PHA-stimulated mononuclear cells (BrdU incorporation); format: cell-based; settings: PBMC, 1 μg/ml Phytohemagglutinine, 48 hours, test compounds 0.1-250 μM, read-out: MNC IC50
Description: as §1
DNA synthesis of proliferating PBMC was assessed by incorporation of nucleotide analogue bromdesoxyuridine (BrdU) and subsequent detection of optical density (OD) at 450 nm.
as §2, §3

[2] = molecular target: purified, recombinant human DPIV (Homo sapiens, UniProt P27487); assay: Measurement of DPIV activity (fluorogenic substrate (Ala-Pro)2-R110)
Description: The enzymatic activity of DPIV was assessed by the hydrolysis of the fluorogenic substrate bis-(L-alanyl-prolyl)-Rhodamin-110 (bis-trifluoracetate, abbreviation (Ala-Pro)2-R110). The final substrate concentration was 0.5 μM.
The assay was performed in white microtitre plates for fluorescence measurements. The test items, substrate and enzyme were diluted in assay buffer. […] As controls, the DPIV activity in the absence of test items as well as the spontaneous hydrolysis of the substrate was determined.

[3] = molecular target: human recombinant Aminopeptidase N (Homo sapiens, UniProt P15144); assay: Measurement of APN activity (fluorogenic substrate (Ala)2-R110); format: biochemical; settings: human recombinant APN approx. 5 nM, substrate 0.5 μM, pH 7.5
Description: Inhibitory effects of test items on the enzymatic activity of human recombinant Aminopeptidase N (final concentration approx. 5 nM) were assessed by using the fluorogenic substrate bis-(L-alanyl)-Rhodamine-110 (bis-trifluoracetate, abbreviation (Ala)2-R110) at a final concentration of 0.5 μM. The assay was performed in 0.05 M TRIS/HCl buffer pH 7.5, supplemented with 0.05% Triton (v/v), 0.05% BSA (w/v), 2 mM MgCl2.
The assay was performed in white microtitre plates for fluorescence measurements.
As controls, (Ala)2-R110 hydrolyzing activity in the absence of any test item as well as the spontaneous substrate hydrolysis was determined.
The release of the fluorescent hydrolysis product Rhodamine 110 was measured at an excitation wavelength of 485 nm and an emission wavelength of 530 nm by using a microtitre fluorescence reader immediately after substrate addition as well as after 30, 60 and 120 min.

Sequence of purified, recombinant human DPIV (P27487 whole entry): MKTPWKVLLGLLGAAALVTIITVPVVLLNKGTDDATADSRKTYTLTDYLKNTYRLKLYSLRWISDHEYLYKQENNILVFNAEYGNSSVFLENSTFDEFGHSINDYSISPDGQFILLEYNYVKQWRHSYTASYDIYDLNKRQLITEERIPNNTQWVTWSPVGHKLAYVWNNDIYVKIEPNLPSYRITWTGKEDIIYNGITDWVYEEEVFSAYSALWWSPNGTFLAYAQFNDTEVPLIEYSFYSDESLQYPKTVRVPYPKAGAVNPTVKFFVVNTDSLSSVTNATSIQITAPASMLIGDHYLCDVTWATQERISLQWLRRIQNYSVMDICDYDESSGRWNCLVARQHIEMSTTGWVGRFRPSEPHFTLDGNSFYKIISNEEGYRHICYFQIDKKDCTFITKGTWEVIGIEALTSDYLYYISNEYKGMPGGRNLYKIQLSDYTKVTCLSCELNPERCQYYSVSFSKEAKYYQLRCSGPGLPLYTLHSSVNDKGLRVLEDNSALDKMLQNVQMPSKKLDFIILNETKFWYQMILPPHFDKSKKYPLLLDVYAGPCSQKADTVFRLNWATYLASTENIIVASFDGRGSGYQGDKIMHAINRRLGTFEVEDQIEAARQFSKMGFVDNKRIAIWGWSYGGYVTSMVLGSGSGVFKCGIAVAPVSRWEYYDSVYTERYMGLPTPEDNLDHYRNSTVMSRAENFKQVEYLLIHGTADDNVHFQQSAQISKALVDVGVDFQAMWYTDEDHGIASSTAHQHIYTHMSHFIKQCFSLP
Sequence of human recombinant Aminopeptidase N (P15144 whole entry): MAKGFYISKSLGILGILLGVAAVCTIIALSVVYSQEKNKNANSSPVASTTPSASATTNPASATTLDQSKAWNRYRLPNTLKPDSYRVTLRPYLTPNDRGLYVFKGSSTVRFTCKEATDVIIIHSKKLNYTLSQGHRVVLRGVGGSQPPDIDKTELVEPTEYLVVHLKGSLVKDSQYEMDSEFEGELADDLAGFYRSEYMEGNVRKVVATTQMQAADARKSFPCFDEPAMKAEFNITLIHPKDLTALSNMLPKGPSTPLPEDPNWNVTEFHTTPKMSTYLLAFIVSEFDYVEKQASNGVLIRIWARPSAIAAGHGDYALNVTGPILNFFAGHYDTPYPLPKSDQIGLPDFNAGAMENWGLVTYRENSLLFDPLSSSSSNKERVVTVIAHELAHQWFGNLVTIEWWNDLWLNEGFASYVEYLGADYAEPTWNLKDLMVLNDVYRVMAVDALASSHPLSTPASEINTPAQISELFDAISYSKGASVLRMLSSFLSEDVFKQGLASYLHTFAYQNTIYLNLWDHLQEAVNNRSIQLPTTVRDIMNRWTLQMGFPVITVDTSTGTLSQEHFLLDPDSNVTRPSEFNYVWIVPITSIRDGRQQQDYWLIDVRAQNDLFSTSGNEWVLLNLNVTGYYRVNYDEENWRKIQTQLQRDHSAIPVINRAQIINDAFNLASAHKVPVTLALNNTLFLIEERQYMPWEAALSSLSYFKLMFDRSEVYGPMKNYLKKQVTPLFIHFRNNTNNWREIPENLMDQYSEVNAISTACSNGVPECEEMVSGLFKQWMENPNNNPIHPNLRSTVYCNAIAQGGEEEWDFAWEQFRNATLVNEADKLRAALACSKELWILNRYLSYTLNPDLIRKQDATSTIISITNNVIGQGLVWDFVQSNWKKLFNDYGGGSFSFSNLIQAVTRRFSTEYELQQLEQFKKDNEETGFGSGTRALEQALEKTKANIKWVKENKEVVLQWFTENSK

IC50 [2] [µM] | IC50 [3] [µM] | SMILES | IC50 (T lymphocytes) [µM] | IC50 [1] [µM]
– | – | CCCCCCCC(=O)OC(C(=O)N(C)CCCNC(=O)CC(N)Cc1cc(F)ccc1F)C(N)Cc1ccccc1 (centres unmarked) [drawing 250] | 9.5 | 11.1
– | – | NC(CC(=O)NCCCCCCNC(=O)C(O)C(N)Cc1ccccc1)Cc1ccccc1 (centres unmarked) [drawing 234] | – | 200
– | – | CCC(CC)(CNC(=O)CC(N)Cc1cc(F)ccc1F)CNC(=O)C(O)C(N)Cc1ccccc1 (centres unmarked) [drawing 265] | 7.2 | –
– | – | CC(C(=O)NCC(C)(C)CNC(=O)C(O)C(N)Cc1ccccc1)C(N)Cc1cc(F)ccc1F (centres unmarked) [drawing 266] | 38.9 | 41.6
– | – | NC(CC(=O)NCC1(CNC(=O)C(O)C(N)Cc2ccccc2)CCCC1)Cc1cc(F)ccc1F (centres unmarked) [drawing 274] | 12.9 | 16.2
– | – | CCCC(=O)OC(C(=O)NCC(C)(C)CNC(=O)CC(N)Cc1cc(F)ccc1F)C(N)Cc1ccccc1 (centres unmarked) [drawing 260] | 55.3 | 95.1
– | – | NC(CC(=O)NCCCCNC(=O)C(O)C(N)Cc1ccc(C(=O)O)cc1)Cc1cc(F)ccc1F (centres unmarked) [drawing 251] | 112 | 130
– | – | NC(CC(=O)NCCCNC(=O)C(O)C(N)Cc1ccccc1)Cc1cc(F)ccc1F (centres unmarked) [drawing 237] | 70 | 122
– | – | CC(C)(CNC(=O)CC(N)Cc1cc(F)ccc1F)CNC(=O)C(O)C(N)Cc1ccc(-c2cncnc2)cc1 (centres unmarked) [drawing 283] | 96.1 | 70
– | – | CC(C)(CNC(=O)CC(N)Cc1ccccc1)CNC(=O)C(O)C(N)Cc1ccccc1 (centres unmarked) [drawing 227] | ≥ 200 | 200
– | – | NC(CC(=O)NCC1(CNC(=O)C(O)C(N)Cc2ccccc2)CCC1)Cc1ccccc1 (centres unmarked) [drawing 235] | 157 | 200
– | – | CC(C)(CNC(=O)CC(N)C(=O)N1CCSC1)CNC(=O)C(O)C(N)Cc1ccccc1 (centres unmarked) [drawing 236] | ≥ 200 | 200
– | – | NC(CC(=O)NC(CCCNC(=O)C(O)C(N)Cc1ccccc1)C(=O)O)Cc1cc(F)ccc1F (centres unmarked) [drawing 241] | 113 | 70
– | – | CCCCCCCCCCCC(=O)OC(C(=O)NCC(C)(C)CNC(=O)CC(N)Cc1cc(F)ccc1F)C(N)Cc1ccccc1 (centres unmarked) [drawing 253] | 2 | 1.7
– | – | CN(CCCNC(=O)CC(N)Cc1cc(F)ccc1F)C(=O)C(O)C(N)Cc1ccccc1 (centres unmarked) [drawing 246] | ≥ 200 | –
– | – | NC(CC(=O)NCCNC(=O)CC(O)C(N)Cc1ccccc1)Cc1ccccc1 (centres unmarked) [drawing 224] | 157 | 120
– | – | CCCCCCCCCCCCCCCC(=O)OC(C(=O)NCC(C)(C)CNC(=O)CC(N)Cc1cc(F)ccc1F)C(N)Cc1ccccc1 (centres unmarked) [drawing 249] | 34.4 | 35.8
– | – | CCCCCCCCCCCCCCCC(=O)NC(CC(=O)NCC(C)(C)CNC(=O)C(O)C(Cc1ccccc1)NC(=O)CCCCCCCCCCCCCCC)Cc1cc(F)ccc1F (centres unmarked) [drawing 268] | 97.5 | 200
– | – | CC(C)(CNC(=O)C(O)C(N)Cc1ccccc1)CNC(=O)C(CC(=O)O)C(N)Cc1cc(F)ccc1F (centres unmarked) [drawing 262] | 88.3 | –
0.12 | 0.03 | NC(CC(=O)NC1CCCC(NC(=O)C(O)C(N)Cc2ccccc2)C1)Cc1cc(F)ccc1F (centres unmarked) [drawing 63] | – | –
0.1 | > 50 | CC(C)(CCNC(=O)CC(N)Cc1cc(F)ccc1F)CNC(=O)C(O)C(N)Cc1ccccc1 (centres unmarked) [drawing 36] | – | –
0.1 | 0.001 | CC(C)(CNC(=O)CC(N)Cc1cc(F)ccc1F)CNC(=O)C(O)C(N)Cc1ccc(-c2ccsc2)cc1 (centres unmarked) [drawing 74] | – | –
1.7 | > 50 | NC(CC(=O)NCCCCNC(=O)C(O)C(N)Cc1ccccc1)C(=O)N1CCSC1 (centres unmarked) [drawing 42] | – | –
28 | 1.5 | NC(CC(=O)NCCNC(=O)C(O)C(N)Cc1ccccc1)Cc1ccc2ccccc2c1 (centres unmarked) [drawing 13] | – | –
1 | 21 | CCCCCCCCCCCCCC(=O)OC(C(=O)NCC(C)(C)CNC(=O)CC(N)Cc1cc(F)ccc1F)C(N)Cc1ccccc1 (centres unmarked) [drawing 46] | – | –
0.2 | > 50 | CCCCCCCCCC(=O)OC(C(=O)NCC(C)(C)CNC(=O)CC(N)Cc1cc(F)ccc1F)C(N)Cc1ccccc1 (centres unmarked) [drawing 48] | – | –
2 | 0.18 | CC(C)(CNC(=O)CC(N)Cc1ccccc1)CNC(=O)C(O)C(N)Cc1ccccc1 (centres unmarked) [drawing 21] | – | –

From patent publication US20120258960A1, “NOVEL MULTIFUNCTIONAL PEPTIDASE INHIBITORS, ESPECIALLY FOR MEDICAL USE” (IMTM GMBH, priority 2009, published 2012)
